Tested on: Tcf4^+/− mice
Assay: Fear conditioning (time freezing)
Assay type: in vivo, mouse
Design: key to Fear Conditioning: Tukey’s Multiple Comparisons Test Summary: **** = p < 0.00001; ns = not significant
Procedure: In vivo behavioral studies were conducted in Tcf4^+/− mutant and wildtype littermate control (WT) mice by Gen.DDI (Santiago, Chile). Littermate controls consist of the genotypes Tcf4^+/+. All Tcf4 mutant mice used were heterozygous for the Tcf4 mutation because homozygous mutations of Tcf4 result in embryonic to postnatal day 1 lethality. Ten mice per treatment group, 14 weeks of age, were used for behavioral experiments. Experiments were conducted in line with the requirements of the UK Animals (Scientific Procedures) Act, 1986. The mice were housed in plastic cages (35×30×12 cm), 5 in each and habituated to the animal facilities for at least a week before commencing the test. The room temperature (21° C.±2° C.), relative humidity (55%±5%), a 12-hour light-dark cycle (lights on 7 AM to 7 PM), and air exchange were automatically controlled. The animals had free access to commercial food pellets and water. Testing was performed during the light phase of the circadian cycle, with the order of testing being determined by the principle of conducting the most stressful tests last. Assays were designed to reproduce and expand on the original behavioral characterization of Tcf4^+/− mice. Tcf4^+/− and WT control mice were treated for 6 weeks prior to testing and tested 30 minutes following a dose of cG-2-AllylP, as described in Table 2 below.
Fear conditioning to either an event or a context represents a form of associative learning that has been well studied in many species. In mice, fear is often shown as stopping movement, also known as freezing behavior. Freezing is adaptive for prey species because predators often locate moving prey. The dependent measure used in contextual (delay) fear conditioning is a freezing response that takes place following pairing of an unconditioned stimulus (foot shock), with a conditioned stimulus (CS; e.g., an audible tone), a particular context and/or such a cue. If in a conditioning context one administers a foot shock that is paired with a tone, there will be learning not only to the tone, but also to the context.
Contextual fear conditioning is a basic conditioning procedure. It involves taking an animal and placing it in a novel environment, providing an aversive stimulus, and then removing it. […] Freezing is a response to fear, which has been defined as “absence of movement except for respiration.” This freezing behavior may last from seconds to minutes depending on the strength of the aversive stimulus, the number of presentations, and the degree of learning achieved by the subject.
Animals with the Tcf4^+/− mutation show less freezing behavior than wild type mice. This maladaptive behavior can have serious consequences. Therefore, to determine if NNZ-2591 (cG-2-AllylP) can restore normal fear conditioning in Tcf4^+/− mice, we carried out a series of studies.
The percent of time spent in freezing over a 5-minute test period is shown on the vertical axis of FIG. 4. Animals and their treatments are shown on the horizontal axis.

SMILES: C=CC[C@]12CCCN1C(=O)CNC2=O [cG-2-AllylP, (8aS)-Allyl-hexahydropyrrolo[1,2-a]pyrazine-1,4-dione]
- Fear Conditioning: Tukey’s Multiple Comparisons Test Summary (Tcf4^+/− + cG-2-AllylP (100 mg/kg) vs Tcf4^+/− + cG-2-AllylP (200 mg/kg)): *** (*** = p < 0.001)
- Fear Conditioning: Tukey’s Multiple Comparisons Test Summary (Tcf4^+/− + cG-2-AllylP (100 mg/kg) vs WT + cG-2-AllylP (200 mg/kg)): **** (**** = p < 0.0001)
- Fear Conditioning: Tukey’s Multiple Comparisons Test Summary (Tcf4^+/− + vehicle vs Tcf4^+/− + cG-2-AllylP (100 mg/kg)): **** (**** = p < 0.0001)
- Fear Conditioning: Tukey’s Multiple Comparisons Test Summary (Tcf4^+/− + vehicle vs Tcf4^+/− + cG-2-AllylP (200 mg/kg)): **** (**** = p < 0.0001)
- Fear Conditioning: Tukey’s Multiple Comparisons Test Summary (Tcf4^+/− + vehicle vs WT + cG-2-AllylP (100 mg/kg)): **** (**** = p < 0.0001)
- Fear Conditioning: Tukey’s Multiple Comparisons Test Summary (Tcf4^+/− + vehicle vs WT + cG-2-AllylP (200 mg/kg)): **** (**** = p < 0.0001)
- Time spent in freezing behavior over a 5-minute test period (Tcf4^+/− mice, 100 mg/kg oral BID 6 weeks, 100 mg/kg): improved but remained significantly different to Wild Type
- Behavior Normalized to WildType Levels: Fear Con (Tcf4^+/− mice, 200 mg/kg): ✓
- Fear Conditioning: Tukey’s Multiple Comparisons Test Summary (WT + cG-2-AllylP (100 mg/kg) vs Tcf4^+/− + cG-2-AllylP (100 mg/kg)): ns
- Fear Conditioning: Tukey’s Multiple Comparisons Test Summary (WT + cG-2-AllylP (100 mg/kg) vs Tcf4^+/− + cG-2-AllylP (200 mg/kg)): nx
- Fear Conditioning: Tukey’s Multiple Comparisons Test Summary (WT + cG-2-AllylP (100 mg/kg) vs WT + cG-2-AllylP (200 mg/kg)): ns
- Fear Conditioning: Tukey’s Multiple Comparisons Test Summary (WT + cG-2-AllylP (200 mg/kg) vs Tcf4^+/− + cG-2-AllylP (200 mg/kg)): ns
- Fear Conditioning: Tukey’s Multiple Comparisons Test Summary (WT + vehicle vs Tcf4^+/− + cG-2-AllylP (100 mg/kg)): * (* = p < 0.05)
- Fear Conditioning: Tukey’s Multiple Comparisons Test Summary (WT + vehicle vs Tcf4^+/− + cG-2-AllylP (200 mg/kg)): ns
- Fear Conditioning: Tukey’s Multiple Comparisons Test Summary (WT + vehicle vs WT + cG-2-AllylP (100 mg/kg)): ns
- Fear Conditioning: Tukey’s Multiple Comparisons Test Summary (WT + vehicle vs WT + cG-2-AllylP (200 mg/kg)): ns
- Time spent in freezing behavior over a 5-minute test period (WT mice, 100 mg/kg oral BID 6 weeks): about the same amount of time in freezing behavior as did vehicle-treated WT mice
- Time spent in freezing behavior over a 5-minute test period (WT mice, 200 mg/kg oral BID 6 weeks): about the same amount of time in freezing behavior as did vehicle-treated WT mice

— patent publication US12472177B2, “Bicyclic compounds and methods for their use in treating Pitt Hopkins syndrome” (NEUREN PHARMACEUTICALS LIMITED, priority 2019, dated 2025)
